From PMC6153414 (Protein Science : A Publication of the Protein Society, 2018)

Experiments:
DotBL = target: T1, DotBL (Legionella pneumophila, UniProt O52185)
T1 construct: gene dotB

[1] = target: DotB from the dot/icm system encoded by the L. pneumophila genome (DotBL), wild type (L. pneumophila) (UniProt Q5ZS43); assay: SEC-MALS

## Nc1ncnc2c1ncn2[C@@H]1O[C@H](COP(=O)(O)OP(=O)(O)NP(=O)(O)O)[C@@H](O)[C@H]1O [AMP–PNP]
DotBL
  malachite green phosphate release, inhibition after 10 min preincubation: the analogue binds and competes with ATP resulting in an inhibition of phosphate release

## DotB from the dot/icm system encoded by the L. pneumophila genome (DotBL), wild type (from UniProt Q5ZS43 1-387) (enzyme)
[1]
  stoichiometry N: 6
